Assay [1] is described as follows: inhibitors of intracellular T. cruzi replication, confirmation, NIH3T3 host cells, beta-gal luminescence (AID 2044).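 Also: intracellular parasites grown in NIH/3T3 mouse fibroblasts as host cells; luminescent beta-galactosidase reporter signal from transgenic T. cruzi replicating inside host cells; inhibitors lower the luminescence signal.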 Format: functional, cell-based.
A short description of assay [2]: cytotoxicity toward NIH3T3 fibroblasts, dose response, counter-screen, cell-based, ATP luminescence, mouse fibroblasts (AID 2010).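 Also: cells exposed to compound for about 90 hours before reading.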 It counts as functional.
The nature of assay [3]: cytotoxicity in HEK-293T cells, dose response, cytotoxicity control for TCR NF-kB inhibitor project, luminescence, T-cell screen hits (AID 489026).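 Also: cells exposed to compound about 14 hours before the viability readout.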 Format: functional, cell-based.
Assay [4] can be described thus: HEK293 cell cytotoxicity, dose response, cytotoxicity control, dry powder samples (AID 720567). Format: functional, cell-based.
Assay [5] is described as follows: cytotoxicity toward DRD oncogenic fibroblasts, dose response, cell-based, non-viral oncogenic, luminescence (AID 1934). Format: functional. The conditions noted are these: Homo sapiens.
The nature of assay [6]: Luminescence-based dose response cell-based high throughput screening assay for cytotoxic compounds using the IEC-6 intestinal epithelial cell line. [Related pubchem assays: 1858 (Summary AID.), 1825 (Counterscreen.), 1907 (Confirmation screen.)]. Format: functional.
The subject of assay [7] is BJ. The assay is described as follows: cytotoxicity toward BJ-TERT-LT-ST fibroblasts, dose response, cell-based, RAS-independent, luminescence (AID 1935).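 Also: BJ fibroblasts immortalized with TERT plus LT and ST oncogenes.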 It counts as functional. The conditions noted are these: Homo sapiens.
Assay [8] deals with BJ. The assay can be described thus: cells. Format: functional, cell-based. The following applies: Homo sapiens.
Assay [9] relates to BJ. The assay is described as follows: cytotoxicity toward BJ-TERT fibroblasts, dose response, cell-based, RAS-independent, luminescence (AID 1933). The following applies: Homo sapiens. It counts as functional.
Assay [10] concerns the target 5-hydroxytryptamine receptor 1A (Homo sapiens, UniProt P08908). Format: functional.
Assay [11] in a line: Luminescent dose response cell-based high throughput screening assay for inhibitors of the Janus kinase 2 mutant JAK2V617F. [Related pubchem assays: 1446 (Primary screen.), 1521 (Confirmation assay.), 1486 (Counter screen.)]. It counts as functional. For orientation: The purpose of a counterscreen is to sort out artefacts and off-target activity.
For assay [12], the target named is T1, DNA repair and recombination protein RAD54-like (Homo sapiens, UniProt Q92698).
T1 sequence (Q92698 whole entry): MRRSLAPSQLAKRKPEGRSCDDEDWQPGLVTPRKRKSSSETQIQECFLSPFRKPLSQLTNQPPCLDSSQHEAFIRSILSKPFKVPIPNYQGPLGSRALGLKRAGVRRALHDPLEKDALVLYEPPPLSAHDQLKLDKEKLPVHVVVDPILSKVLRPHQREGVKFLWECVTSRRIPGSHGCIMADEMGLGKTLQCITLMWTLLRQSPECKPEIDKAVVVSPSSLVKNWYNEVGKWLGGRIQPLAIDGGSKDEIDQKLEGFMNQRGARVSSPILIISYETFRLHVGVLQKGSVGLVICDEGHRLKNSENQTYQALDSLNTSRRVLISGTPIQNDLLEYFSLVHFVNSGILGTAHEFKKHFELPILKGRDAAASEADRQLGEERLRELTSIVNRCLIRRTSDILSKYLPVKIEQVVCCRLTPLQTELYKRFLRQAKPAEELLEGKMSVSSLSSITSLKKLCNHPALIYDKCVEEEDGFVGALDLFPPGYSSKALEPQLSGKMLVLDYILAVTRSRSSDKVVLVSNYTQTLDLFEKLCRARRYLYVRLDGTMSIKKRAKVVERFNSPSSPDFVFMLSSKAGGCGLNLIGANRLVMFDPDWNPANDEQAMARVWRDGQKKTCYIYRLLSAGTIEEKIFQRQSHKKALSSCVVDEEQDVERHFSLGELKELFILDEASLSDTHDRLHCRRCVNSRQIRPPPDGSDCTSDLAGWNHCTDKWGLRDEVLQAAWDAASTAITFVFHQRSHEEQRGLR
The assay can be described thus: inhibitors of human RAD54 branch migration, confirmation, biochemical, fluorescence, cherry-picked samples, dose series (AID 651657). It counts as functional.

Assay [13] is described as follows: Luminescence Cell-Based Dose Response to Identify Activators of Luciferase Translation or Activity in H4-C Neuroglioblastoma Cells. [Related pubchem assays: 1829 (Project Summary), 1814 (Primary HTS)]. Format: functional.
Assay [14] in a line: Luminescence Cell-Based Dose Confirmation to Identify Activators of 5'UTR Stem-Loop Driven Alpha-Synuclein mRNA Translation in H4 Neuroglioblastoma Cells. [Related pubchem assays: 1829 (Project Summary), 1814 (Primary HTS)]. Format: functional.
Assay [15] is described as follows: Luminescence Cell-Based Dose Response to Identify Activators of 5'UTR Stem-Loop Driven Prion Protein mRNA Translation in H4-C Neuroglioblastoma Cells. [Related pubchem assays: 1829 (Project Summary), 1814 (Primary HTS)]. It counts as functional.
Assay [16] can be described thus: Luminescence Cell-Based Dose Response HTS to Identify Activators of Luciferase Translation or Activity in H4 […] Cells. [Related pubchem assays: 1829 (Project Summary), 1814 (Primary HTS)]. Format: functional.
Assay [17] is described as follows: yeast RAM network inhibitors, dose response, S. cerevisiae (AID 1307). It counts as functional.
The nature of assay [18]: M. tuberculosis H37Rv growth inhibitors, H37Rv strain (AID 1626). Format: functional.
Assay [19] concerns the target T2, Oxysterols receptor LXR-beta (Homo sapiens, UniProt P55055).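 Also: agonist activity at LXR measured by a cell-based luminescence readout across a dose range, run as a counterscreen for daf-12 agonists; HEK293 cells with Gal4-LXR fusion and GAL4-driven luciferase reporter; potency for activation of Gal4-LXR reporter so compounds are agonists.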
T2 sequence (P55055 whole entry): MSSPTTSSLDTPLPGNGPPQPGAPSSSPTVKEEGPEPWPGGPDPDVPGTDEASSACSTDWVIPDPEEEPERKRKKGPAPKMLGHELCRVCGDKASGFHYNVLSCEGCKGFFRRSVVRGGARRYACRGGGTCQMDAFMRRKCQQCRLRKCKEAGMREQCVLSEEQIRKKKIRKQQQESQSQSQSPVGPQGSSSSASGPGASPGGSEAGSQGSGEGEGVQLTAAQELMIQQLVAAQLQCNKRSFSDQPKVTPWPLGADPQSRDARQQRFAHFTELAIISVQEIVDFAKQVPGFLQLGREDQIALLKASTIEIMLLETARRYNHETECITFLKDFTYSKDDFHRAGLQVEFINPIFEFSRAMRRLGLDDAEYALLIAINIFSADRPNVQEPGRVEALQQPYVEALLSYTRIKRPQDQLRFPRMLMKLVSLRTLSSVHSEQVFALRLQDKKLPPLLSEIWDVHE
It counts as functional, cell-based.

The target in assay [20] is Aryl hydrocarbon receptor (Homo sapiens, UniProt P35869). The assay can be described thus: Luminescence-based cell-based high throughput dose response assay for activators of the Aryl Hydrocarbon Receptor (AHR). [Related pubchem assays: 2796 (Primary screen (AHR activators in singlicate)), 2845 (Confirmation screen (AHR activators in triplicate)), 434939 (Counterscreen (PXR activators in triplicate)), 2804 (Summary (AHR activators))]. Format: ADME.

This passage reports EC50, IC50 and AC50 results from ChEMBL document CHEMBL1201862, “PubChem BioAssay data set” (2004).

The structures appear in SMILES notation. The source made the active and inactive calls.

Sequence of 5-hydroxytryptamine receptor 1A (P08908 whole entry): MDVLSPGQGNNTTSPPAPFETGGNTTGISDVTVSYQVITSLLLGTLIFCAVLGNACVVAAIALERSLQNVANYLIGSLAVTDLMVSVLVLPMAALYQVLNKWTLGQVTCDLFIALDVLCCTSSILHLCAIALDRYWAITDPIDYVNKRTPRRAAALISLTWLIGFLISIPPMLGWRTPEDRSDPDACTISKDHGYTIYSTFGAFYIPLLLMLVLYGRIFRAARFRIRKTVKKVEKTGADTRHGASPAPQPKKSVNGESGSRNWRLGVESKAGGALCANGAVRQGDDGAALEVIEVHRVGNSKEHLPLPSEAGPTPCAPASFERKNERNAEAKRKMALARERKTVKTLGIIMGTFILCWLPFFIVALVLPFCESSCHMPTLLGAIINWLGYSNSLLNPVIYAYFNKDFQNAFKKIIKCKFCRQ
Sequence of Aryl hydrocarbon receptor (P35869 whole entry): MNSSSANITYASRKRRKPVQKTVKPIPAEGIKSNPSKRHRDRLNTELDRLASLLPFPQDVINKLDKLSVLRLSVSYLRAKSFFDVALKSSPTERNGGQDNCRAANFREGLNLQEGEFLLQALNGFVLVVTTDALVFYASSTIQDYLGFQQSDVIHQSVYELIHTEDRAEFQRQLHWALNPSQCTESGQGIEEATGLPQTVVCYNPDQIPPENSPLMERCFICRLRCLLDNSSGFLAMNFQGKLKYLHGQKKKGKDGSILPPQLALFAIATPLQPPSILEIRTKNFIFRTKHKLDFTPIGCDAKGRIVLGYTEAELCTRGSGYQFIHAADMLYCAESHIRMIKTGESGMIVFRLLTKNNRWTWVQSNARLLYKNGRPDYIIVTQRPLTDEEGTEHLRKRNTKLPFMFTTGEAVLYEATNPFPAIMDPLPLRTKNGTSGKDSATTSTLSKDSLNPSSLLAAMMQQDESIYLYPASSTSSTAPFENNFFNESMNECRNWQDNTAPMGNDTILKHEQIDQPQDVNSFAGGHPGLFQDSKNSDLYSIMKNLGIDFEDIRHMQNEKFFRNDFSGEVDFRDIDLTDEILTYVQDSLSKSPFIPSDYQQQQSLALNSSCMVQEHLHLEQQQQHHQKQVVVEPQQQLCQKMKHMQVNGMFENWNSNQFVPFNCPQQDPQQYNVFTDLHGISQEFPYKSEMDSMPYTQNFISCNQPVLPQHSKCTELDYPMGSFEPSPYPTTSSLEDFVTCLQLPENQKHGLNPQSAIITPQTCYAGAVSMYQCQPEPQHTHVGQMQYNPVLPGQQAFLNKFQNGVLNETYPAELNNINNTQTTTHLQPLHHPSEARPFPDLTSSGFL

In the case of `CCn1c2ccccc2c2cc(NC(=O)c3cc(OC)c(OC)c(OC)c3)ccc21`, the EC50 (usually the midpoint of the concentration-response curve) was 1000 nM (active) in assay [1]; 121 nM (active) in assay [2]; 284 nM (inconclusive) in [5]; 165 nM (inconclusive) with BJ [7]; 745 nM (inconclusive) in the assay on BJ [8]; 184 nM (active) in the assay with BJ [9]. Besides, the IC50 (in general, the midpoint of a concentration-inhibition curve) is > 80000 nM (inactive) in assay [3] and 534 nM (active) in assay [6]. Moreover, in assay [4], the AC50 (usually the midpoint of the concentration-response curve, whichever way the signal moves) was 25600 nM (active).

Turning to `CN1CCN(/C(=N\O)c2nonc2N)CC1`, the EC50 in [10] is > 50000 nM (not active).

As for `CC1CCN(CCCNC(=O)c2cc3c(Cl)nc4ccccc4c3s2)CC1`, the EC50 in assay [1] was 2100 nM (active). Also, the IC50 in assay [11] is 960 nM (active). The AC50 in assay [12] is 11700 nM (active).

For the compound `O=c1sc(N2CCN(c3ccccc3F)CC2)nc2ccsc12`, the EC50 in assay [13] was 349 nM (active); in assay [14] it was 237 nM (active); in [15], 309 nM (active); in [16], < 100 nM (inconclusive).

As to `CN1/C(=C\C=C2/C(=O)Oc3ccccc3C2=O)C(C)(C)c2ccccc21`, in assay [17], the IC50 is 178000 nM (active).

With `O=C(Nc1nnc(-c2ccc3c(c2)OCCO3)o1)C1CCCCC1`, the IC50 in assay [18] was > 100000 nM (active).

For the compound `Cc1ccc(Nc2ncccc2C(N)=O)cc1`, the EC50 in [19] is > 67400 nM (inactive); in [20] it was 1360 nM (active).
